Results reported in patent US8389523B2, “Substituted quinoxaline and an agrochemical composition thereof” (Kumiai Chemical Industry Co., Ltd., priority 2007, dated 2013).

Legend:
Assay type in all cases: in vivo
Parameters in all cases: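 grade 0 to 5 of growth suppression where 5 is 90% or more and 0 below 10%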
[1] = test system: Abutilon theophrasti medicus; assay: Herbicidal effects in upland field foliar treatment (Test Example 3); conditions: criteria of Table 138; for herbicidal effect (index) on Abutilon theophrasti medicus: 1000 g active ingredient per hectare, 14th day after treatment; for herbicidal effects on Abutilon theophrasti medicus: 1000 g of the active ingredient per hectare, 14th day after the treatment, wettable powder
Method in brief: (§1)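 Weeds were sown in upland field soil and grown two weeks in a greenhouse before a foliar spray over the whole plant. Wettable powder was diluted in water and applied at 1000 L/ha, delivering 1000 g active ingredient/ha. Herbicidal effect was scored against set rating criteria 14 days after treatment.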

[2] = test system: Echinochloa crus-galli (L.) P. Beauv. var. crus-galli; assay: as above; conditions: criteria of Table 138; for herbicidal effect (index) on Echinochloa crus-galli (L.) P. Beauv. var. crus-galli: 1000 g active ingredient per hectare, 14th day after treatment; for herbicidal effects on Echinochloa crus-galli (L.) P. Beauv. var. crus-galli: 1000 g of the active ingredient per hectare, 14th day after the treatment, wettable powder
Method in brief: as §1

Amaranthus viridis L. [3] = assay: as above; conditions: criteria of Table 138; for herbicidal effect (index) on Amaranthus viridis L.: 1000 g active ingredient per hectare, 14th day after treatment; for herbicidal effects on Amaranthus viridis L.: 1000 g of the active ingredient per hectare, 14th day after the treatment, wettable powder
Method in brief: as §1

[4] = test system: Echinochloa oryzicola Vasing; assay: Herbicidal effects in paddy field soil treatment (Test Example 1); conditions: paddy field soil treatment; 1000 g of the active ingredient per hectare; wettable powder added dropwise on water surface; 21st day after treatment
Method in brief: (§2)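 Weed seeds were sown into puddled, leveled paddy soil in pots and flooded to 3 cm water depth. One day later the diluted wettable powder formulation was dropped onto the water surface at 1000 g active ingredient per hectare. Herbicidal effect was scored on day 21 after greenhouse growth.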

[5] = test system: Scirpus juncoides Roxb. var. ohwianus. T. Koyama; assay: as above; conditions: paddy field soil treatment; 1000 g of the active ingredient per hectare; wettable powder added dropwise on water surface; 21st day after treatment
Method in brief: as §2

[6] = test system: Monochoria vaginalis (Burm. f.) Presl var. plantaginea (Roxb.) Solms-Laub.; assay: as above; conditions: paddy field soil treatment; 1000 g of the active ingredient per hectare; wettable powder added dropwise on water surface; 21st day after treatment
Method in brief: as §2

[7] = test system: Abutilon theophrasti medicus; assay: Herbicidal effects in upland field soil treatment (Test Example 2); conditions: 1000 g active ingredient per hectare, 21st day after treatment, criteria of Table 138
Method in brief: (§3)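 Pre-emergence soil application: seeds sown in upland field soil, covered, then wettable powder diluted in water sprayed on the soil surface at 1000 g active ingredient/ha in 1000 L/ha. Plants grown in greenhouse; herbicidal effect scored on a rating scale 21 days after treatment.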

Amaranthus viridis L. [8] = assay: as above; conditions: 1000 g active ingredient per hectare, 21st day after treatment, criteria of Table 138
Method in brief: as §3

Compound | herbicidal effect (index) on Abutilon theophrasti medicus [1] | herbicidal effect (index) on Echinochloa crus-galli (L.) P. Beauv. var. crus-galli [2] | herbicidal effect (index) on Amaranthus viridis L. (Amaranthus viridis L. [3]) | Herbicidal effects index, Echinochloa oryzicola Vasing [4] | Herbicidal effects index, Scirpus juncoides Roxb. var. ohwianus. T. Koyama [5] | Herbicidal effects index, Monochoria vaginalis (Burm. f.) Presl var. plantaginea (Roxb.) Solms-Laub. [6] | herbicidal effect (index) on Abutilon theophrasti medicus [7] | herbicidal effect (index) on Amaranthus viridis L. (Amaranthus viridis L. [8]) | herbicidal effects on Abutilon theophrasti medicus [1] | herbicidal effects on Echinochloa crus-galli (L.) P. Beauv. var. crus-galli [2] | herbicidal effects on Amaranthus viridis L. (Amaranthus viridis L. [3])
COCC(C)n1c(=O)c(C(=O)C2=C(O)CCCC2=O)nc2ccccc21 (stereo not drawn) [Compound I-90] | 5 | 5 | 5 | 5 | 5 | 5 | 5 | 5 |  |  | 
N#CCCOCn1c(=O)c(C(=O)C2=C(O)CCCC2=O)nc2ccccc21 [I-68] | 5 | 4 | 5 | 4 | 5 | 5 | 5 | 5 |  |  | 
CC(C)(C)OC(=O)Cn1c(=O)c(C(=O)C2=C(O)CCCC2=O)nc2ccccc21 [Compound I-99] | 5 | 5 | 5 | 5 | 5 | 5 | 5 | 5 |  |  | 
CC1(C)CC(=O)C(C(=O)c2nc3cccnc3n(-c3ccccc3)c2=O)=C(O)C1 [IV-3] |  |  |  | 5 | 5 | 5 | 5 | 5 | 5 | 5 | 5
Cc1cccc(-n2c(=O)c(C(=O)C3=C(O)CCCC3=O)nc3ccccc32)n1 [I-173, 3-(2-hydroxy-6-oxo-1-cyclohexenecarbonyl)-1-(6-methyl-2-pyridyl)-quinoxalin-2 (1H)-one] | 5 | 5 | 5 | 5 | 5 | 5 | 5 | 5 |  |  | 
Cc1cc(-n2c(=O)c(C(=O)C3=C(O)CCCC3=O)nc3ccccc32)no1 [I-145] | 5 | 5 | 5 | 5 | 5 | 5 | 5 | 5 |  |  | 
O=C1CCCC(O)=C1C(=O)c1nc2ccccc2n(COCC2CCCO2)c1=O (stereo not drawn) [I-65] | 5 | 4 | 5 | 4 | 5 | 5 | 5 | 5 |  |  | 
O=C1CCCC(O)=C1C(=O)c1nc2ccccc2n(-c2cnccn2)c1=O [I-199] | 5 | 5 | 5 | 5 | 5 | 5 | 5 | 5 |  |  | 
O=C1CCCC(O)=C1C(=O)c1nc2ccc(F)cc2n(-c2ccccc2)c1=O [II-241] |  |  |  | 5 | 5 | 5 | 5 | 5 | 5 | 5 | 5
Cc1cc(-n2c(=O)c(C(=O)C3=C(O)CCCC3=O)nc3ccccc32)sn1 [I-156] | 5 | 5 | 5 | 5 | 5 | 5 | 5 | 5 |  |  | 
COCCn1c(=O)c(C(=O)C2=C(O)CCCC2=O)nc2ccccc21 [Compound I-88] | 5 | 5 | 5 | 5 | 5 | 5 | 5 | 5 |  |  | 
O=C1CCCC(O)=C1C(=O)c1nc2ccccc2n(-c2ccc3c(c2)CCCC3)c1=O [II-223] |  |  |  | 5 | 5 | 5 | 4 | 5 | 5 | 5 | 5
CCCCn1c(=O)c(C(=O)C2=C(O)CCCC2=O)nc2ccccc21 [Compound I-15] | 5 | 5 | 5 | 5 | 5 | 5 | 5 | 5 |  |  | 
Cc1cnc(-n2c(=O)c(C(=O)C3=C(O)CCCC3=O)nc3ccccc32)cn1 [I-373] | 5 | 5 | 5 | 5 | 5 | 5 | 5 | 5 |  |  | 
COc1ccc(-n2c(=O)c(C(=O)C3=C(O)CCCC3=O)nc3ccc(Cl)cc32)cc1 [II-196] |  |  |  | 4 | 5 | 5 | 4 | 5 | 5 | 5 | 5
O=C1CCCC(O)=C1C(=O)c1nc2ccccc2n(-c2ccc(C(F)(F)F)cn2)c1=O [I-179] | 5 | 5 | 5 | 5 | 5 | 5 | 5 | 5 |  |  | 
O=C1CCCC(O)=C1C(=O)c1nc2ccccc2n(-c2nc(C(F)(F)F)co2)c1=O [I-268] | 5 | 5 | 5 | 5 | 5 | 5 | 5 | 5 |  |  | 
COc1c(F)cc(-n2c(=O)c(C(=O)C3=C(O)CCCC3=O)nc3ccccc32)cc1F [II-220] |  |  |  | 5 | 5 | 5 | 5 | 5 | 5 | 5 | 5
